Tests used:
Assay type in all cases: in vivo, C57BL/6J mice
Fatty acid β-oxidation = assay: Hepatic fatty acid β-oxidation activity; conditions: FIG. 4B, liver, HFD+5% w/w in diet, 16 weeks
Experimental: First, 4-week-old male C57BL/6J mice (60 total) were purchased from Jackson Laboratory. The animals were acclimated to the vivarium in a thermo-hygrostat (20-23° C., 45-65%) under a 12 h light/dark cycle and fed a pelletized commercial non-purified diet for 1 week after arrival. The mice were then randomly divided into 6 groups (n=10) and fed the respective experimental diets for 16 weeks: normal diet group (ND, American Institute of Nutrition (AIN)-76 semi-synthetic diet), high-fat diet group (HFD, 20% fat+1% cholesterol based on AIN-76 diet), PSI group (HFD+5% D-psicose, w/w, Sigma Chemical Company), ERY group (HFD+5% erythritol, w/w, Sigma Chemical Company), GLU group (HFD+5% D-glucose, w/w, Sigma Chemical Company), and FRU group (HFD+5% D-fructose, w/w, Sigma Chemical Company). All high-fat diet-fed groups were allowed to ingest the same calories by pair feeding based on the PSI group. The mice had ad libitum access to distilled water during the experimental period. Their feed intakes and body weights were measured daily and biweekly, respectively. The organ weights and the adipose tissue weights of the mice were measured after sacrificing the animals. Samples were prepared and analyzed according to the method developed by Hulcher and Oleson. Specifically, the activity of fatty acid synthase (FAS) as a hepatic lipid regulating enzyme was measured by spectrophotometric assay according to the method described by Nepokroeff et al. Each sample was mixed with 100 μl of cytoplasmic fraction and the mixture was allowed to react at 30° C. for 2 min. A reduction in absorbance at 340 nm was measured. Fatty acid synthase (FAS) activity units were expressed as nanomoles (nmol) of NADPH oxidized for 1 min per mg of cytoplasmic fraction. Fatty acid β-oxidation activity was measured by monitoring the reduction of NAD^+ to NADH in the presence of palmitoyl-CoA, as described by Lazarow. β-oxidation activity units were expressed as nanomoles (nmol) of NADH produced for 1 min per mg of mitochondrial protein.

[1] = tested on: high-fat diet-induced obese mice; assay: Plasma leptin, resistin, adiponectin levels and L:A ratio; conditions: FIG. 3, HFD+5% w/w in diet, 16 weeks
Experimental: (§1) First, 4-week-old male C57BL/6J mice (60 total) were purchased from Jackson Laboratory. The animals were acclimated to the vivarium in a thermo-hygrostat (20-23° C., 45-65%) under a 12 h light/dark cycle and fed a pelletized commercial non-purified diet for 1 week after arrival. The mice were then randomly divided into 6 groups (n=10) and fed the respective experimental diets for 16 weeks: normal diet group (ND, American Institute of Nutrition (AIN)-76 semi-synthetic diet), high-fat diet group (HFD, 20% fat+1% cholesterol based on AIN-76 diet), PSI group (HFD+5% D-psicose, w/w, Sigma Chemical Company), ERY group (HFD+5% erythritol, w/w, Sigma Chemical Company), GLU group (HFD+5% D-glucose, w/w, Sigma Chemical Company), and FRU group (HFD+5% D-fructose, w/w, Sigma Chemical Company). All high-fat diet-fed groups were allowed to ingest the same calories by pair feeding based on the PSI group. The mice had ad libitum access to distilled water during the experimental period. Their feed intakes and body weights were measured daily and biweekly, respectively. The organ weights and the adipose tissue weights of the mice were measured after sacrificing the animals. Plasma leptin, resistin, and adiponectin levels were measured using Bio-Rad multiplex kits (Hercules, Calif., USA). All samples were assayed in duplicate and analyzed using a Luminex 200 labmap system (Luminex, Austin, Tex., USA). Data analysis was performed using Bio-Plex Manager software version 4.1.1 (Bio-Rad, Hercules, Calif., USA).

[2] = tested on: ApoB48 (apolipoprotein B 48, 238055); assay: Small intestine mRNA expression, real-time quantitative PCR: ApoB48; conditions: FIG. 8, HFD+5% w/w in diet, 16 weeks
Experimental: as §1, with “animals.” for “animals. Plasma leptin, resistin, and adiponectin levels were measured using Bio-Rad multiplex kits (Hercules, Calif., USA). All samples were assayed in duplicate and analyzed using a Luminex 200 labmap system (Luminex, Austin, Tex., USA). Data analysis was performed using Bio-Plex Manager software version 4.1.1 (Bio-Rad, Hercules, Calif., USA).”
Samples were prepared and analyzed as previously described. Specifically, total RNA was synthesized into cDNA using a QuantiTect Reverse Transcription kit (QIAGEN Gmb1h, Hilden, Germany). RNA expression was quantified with real-time quantitative PCR using a QuantiTect SYBR Green PCR kit (QIAGEN Gmb1h, Hilden, Germany). Primers were designed to detect CD36 (cluster of differentiation 36, 12491), ApoB48 (apolipoprotein B 48, 238055), FATP4 (fatty acid transporter 4, 26569), ABCG5 (ATP-binding cassette sub-family G member5, 27409), and ABCG8 (ATP-binding cassette sub-family G member8, 67470). GAPDH was used as an internal transcription marker. The reaction was performed a total of 40 cycles (each consisting of 15 sec at 94° C., 30 sec at 58° C., 30 sec at 72° C., and 15 sec at 65° C.). Fluorescence signals were monitored every cycle and the resulting threshold cycles (Ct) were analyzed. mRNA expression in each experimental group was quantified using a CFX96 Real time system (Bio-rad, USA).

| SMILES | hepatic fatty acid β-oxidation activity (Fatty acid β-oxidation) | leptin:adiponectin ratio (L:A ratio) [1] | plasma leptin level [1] | plasma resistin level [1] | mRNA expression level of ApoB48 in the small intestine [2] | mRNA expression level of ApoB48 in the small intestine ([2]; listed as D-psicose) |
| --- | --- | --- | --- | --- | --- | --- |
| O=C(CO)[C@H](O)[C@H](O)[C@H](O)CO [PSI, D-psicose] | decreased significantly compared to those in other high-fat diet groups | reduced considerably to levels similar to those in the ND group | reduced considerably to levels similar to those in the ND group | reduced considerably to levels similar to those in the ND group | significantly lower in the PSI group than those in other high-fat diet groups | reduces mRNA expression |
| OC[C@@H](O)[C@@H](O)CO [ERY, erythritol] | increased significantly compared to those in the ND group | increased significantly compared to those in the ND group | increased significantly compared to those in the ND group | increased significantly compared to those in the ND group | significantly higher |  |
| O=C(CO)[C@@H](O)[C@H](O)[C@H](O)CO [FRU, D-fructose] | increased significantly compared to those in the ND group | increased significantly compared to those in the ND group | increased significantly compared to those in the ND group | increased significantly compared to those in the ND group | significantly higher |  |
| O=C[C@H](O)[C@@H](O)[C@H](O)[C@H](O)CO [GLU, D-glucose] | increased significantly compared to those in the ND group | increased significantly compared to those in the ND group | increased significantly compared to those in the ND group | increased significantly compared to those in the ND group | significantly higher |  |

— US20180243325A1, “METHOD FOR INHIBITING ABSORPTION OF AND/OR PROMOTING EXCRETION OF LIPIDS USING D-PSICOSE” (CJ CHEILJEDANG CORPORATION, priority 2015, published 2018)
